In patent publication US7416848B2, “DNA encoding SNORF25 receptor” (H. Lundbeck A/S, priority 1999, dated 2008):

Target: T1, serotonin 5-HT4 receptor (Homo sapiens, UniProt Q13639)
T1 construct: expressed in transfected cells; host or cells: Cos-7 cells
Assay: cAMP in Cos-7 cells transfected with serotonin 5-HT4 receptor
Assay type: cell-based
Details: 10 μM, serotonin 5-HT4 (FIG. 7)
Experimental: A typical protocol for the electroporation method as applied to Cos-7 cells is described as follows. Cells to be used for transfection are split 24 hours prior to the transfection to provide flasks which are subconfluent at the time of transfection. The cells are harvested by trypsinization resuspended in their growth media and counted. 5×10^6 cells are suspended in 300 μl of DMEM and placed into an electroporation cuvette. 8 μg of receptor DNA plus 8 μg of any additional DNA needed (e.g. G protein expression vector, reporter construct, antibiotic resistance marker, mock vector, etc.) is added to the cell suspension, the cuvette is placed into a BioRad Gene Pulser and subjected to an electrical pulse (Gene Pulser settings: 0.25 kV voltage, 950 μF capacitance). Following the pulse, 800 μl of complete DMEM is added to each cuvette and the suspension transferred to a sterile tube. Complete medium is added to each tube to bring the final cell concentration to 1×10^5 cells/100 μl. […]
The receptor-mediated stimulation or inhibition of cyclic AMP (cAMP) formation may be assayed in cells expressing the receptors. […] The plates are stored at 4° C. for 15 min, and the cAMP content in the stopping solution is measured by radioimmunoassay. Radioactivity may be quantified using a gamma counter equipped with data reduction software. […]

T1 sequence (Q13639 whole entry): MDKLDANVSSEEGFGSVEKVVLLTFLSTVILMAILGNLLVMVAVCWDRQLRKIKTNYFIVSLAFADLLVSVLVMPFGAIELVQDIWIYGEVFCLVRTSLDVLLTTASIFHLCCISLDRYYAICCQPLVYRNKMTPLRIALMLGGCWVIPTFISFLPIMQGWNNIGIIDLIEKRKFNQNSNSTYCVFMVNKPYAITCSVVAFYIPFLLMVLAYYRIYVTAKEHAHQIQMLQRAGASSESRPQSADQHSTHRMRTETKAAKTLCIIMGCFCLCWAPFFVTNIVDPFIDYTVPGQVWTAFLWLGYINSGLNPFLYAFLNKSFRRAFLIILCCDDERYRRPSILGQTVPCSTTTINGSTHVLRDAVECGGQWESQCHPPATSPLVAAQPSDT

cAMP response: no response
Compound: CC1=C(/C=C/C(C)=C/C=C/C(C)=C/C(=O)O)C(C)(C)CCC1 [ATRA, all-trans-retinoic acid]
